Results published in patent US5464861A, “2-thioindoles (selenoindoles) and related disulfides (selenides) which inhibit protein tyrosine kinases and which have antitumor properties” (Warner-Lambert, priority 1993, dated 1995).
Like-named read-outs stand apart in the source and are kept apart here.

Tests used:
[1] = system: A431 epidermoid; assay: Growth inhibition assay, A431; type: cell-based; conditions: Homo sapiens, A-431, read-out: IC50 cell growth inhibition
[2] = biological target: T1, epidermal growth factor receptor tyrosine kinase (Homo sapiens, UniProt P00533); assay: EGF receptor tyrosine kinase assay (P^32 incorporation in GAT); type: biochemical; conditions: Table 2, EGRF-R; IC50 entries; read-out: IC50 (EGFR TK)
T1 construct: A native 170,000 epidermal growth factor receptor-kinase complex from shed plasma membrane vesicles; endogenous in cells
Procedure, shortened: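 Receptor pre-activated with 150 ng EGF for 10 min at room temperature. ATP with or without compound then added and incubated 10 min at room temperature.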

[3] = system: MDV-7 breast; assay: Growth inhibition assay, MDV-7; type: cell-based; conditions: Homo sapiens, read-out: IC50 cell growth inhibition
[4] = system: bFGF mediated tyrosine phosphorylation; assay: bFGF mediated tyrosine phosphorylation, Western blot; type: cell-based, mouse
Experimental: (§1) Swiss 3T3 fibroblasts, that were growth arrested in serum-free media for 24 hours, were exposed to various concentrations of compound for 2 hours. The cells were then exposed to individual growth factors for 5 minutes and proteins that were phosphorylated on tyrosine in response to the mitogens and were detected by Western blotting techniques using phosphotryosine antibodies. Similar techniques were used for tumor cell lines except the time in serum-free media was increased.

[5] = system: Swiss 3T3 mouse fibroblasts; assay: Growth inhibition assay, Swiss 3T3 fibroblasts; type: cell-based
Experimental: Swiss 3T3 mouse fibroblasts were maintained in dMEM/F12 media containing 10% fetal calf serum. […] The cells were grown at 37° C. under 5% CO2 for 72 hours and then counted by Coulter counter. The data were expressed as the concentration of inhibitor necessary to decrease the growth rate by 50%.

[6] = system: A549 lung; assay: Growth inhibition assay, A549; type: cell-based; conditions: Homo sapiens, read-out: IC50 cell growth inhibition
[7] = system: EGF mediated phosphorylation of a variety of endogenous proteins; assay: EGF mediated tyrosine phosphorylation, Western blot; type: cell-based, mouse; design: dose or concentration left out as unconfirmed; conditions: Swiss 3T3
Experimental: as §1

[8] = system: MDA 468 breast; assay: Growth inhibition assay, MDA 468; type: cell-based; conditions: Homo sapiens, read-out: IC50 cell growth inhibition
[9] = system: MDA-231 breast; assay: Growth inhibition assay, MDA-231; type: cell-based; conditions: Homo sapiens, MDA-MB-231, read-out: IC50 cell growth inhibition
[10] = system: human tumor cell lines as well as the Swiss 3T3 fibroblasts; assay: Growth inhibition of a variety of human tumor cell lines; type: cell-based, human; mouse
Experimental: Swiss 3T3 mouse fibroblasts were maintained in dMEM/F12 media containing 10% fetal calf serum. Two mL of cells at a density of 1×10^4/mL were placed in 24-well plates plus or minus various concentrations of the inhibitor. The cells were grown at 37° C. under 5% CO2 for 72 hours and then counted by Coulter counter. The data were expressed as the concentration of inhibitor necessary to decrease the growth rate by 50%.

[11] = system: Swiss 3T3 fibroblasts; assay: Growth factor mediated mitogenesis (tritiated thymidine incorporation); type: cell-based; conditions: Mus musculus, Swiss-3T3, 24 h
Experimental: Swiss 3T3 fibroblasts, that were growth arrested in serum-free media for 24 hours, were exposed to various concentrations of compound for 2 hours. The cells were then exposed to individual growth factors for 24 hours and mitogenesis assessed by measuring tritiated thymidine incorporation into DNA.
The concentration of 21 and 70 required to inhibit growth factor mediated mitogenesis by 50% for the following growth factors was as follows: […]

[12] = system: HT-29 colon; assay: Growth inhibition assay, HT-29; type: cell-based; conditions: Homo sapiens, read-out: IC50 cell growth inhibition
[13] = system: PDGF mediated autophosphorylation of the PDGF receptor and tyrosine phosphorylation of other endogenous proteins; assay: PDGF mediated tyrosine phosphorylation, Western blot; type: cell-based, mouse; design: dose or concentration left out as unconfirmed; conditions: Swiss 3T3
Experimental: as §1

[14] = biological target: T2, human PDGF β receptor intracellular tyrosine kinase domain (Homo sapiens, UniProt P09619); assay: PDGF receptor tyrosine kinase inhibition assay (P^32 incorporation in Glu-Tyr); type: biochemical; conditions: for inhibition at 100 µM: PDGF-R, read-out: % Inhibition at 100 μM (PDGFR TK)
T2 construct: human PDGF β receptor intracellular tyrosine kinase domain; made in house; host or cells: SF9 insect cells, recombinant baculovirus; cell lysates used
Experimental: Recombinant baculovirus containing human PDGF β receptor intracellular tyrosine kinase domain was used to infect SF9 cells to overexpress the protein, and cell lysates were used for the assay. The ability of the tyrosine kinase to phosphorylate glutamate tyrosine substrate in the presence of P^32 -ATP and inhibitor was measured by counting the incorporation of P^32 in Glu-Tyr in TCAprecipitable material.

[15] = system: human mammary carcinoma MCF-7 and some esophageal tumors; conditions: nude mice, dose-dependent; cited from earlier work
[16] = system: human epidermoid carcinoma A431 cells; conditions: J. Antibiot. 1986;39:170; cited from earlier work
[17] = Swiss 3T3, 72 hours, Table 2, read-out: IC50 growth inhibition

T2 sequence (P09619 554-1106 limits assumed): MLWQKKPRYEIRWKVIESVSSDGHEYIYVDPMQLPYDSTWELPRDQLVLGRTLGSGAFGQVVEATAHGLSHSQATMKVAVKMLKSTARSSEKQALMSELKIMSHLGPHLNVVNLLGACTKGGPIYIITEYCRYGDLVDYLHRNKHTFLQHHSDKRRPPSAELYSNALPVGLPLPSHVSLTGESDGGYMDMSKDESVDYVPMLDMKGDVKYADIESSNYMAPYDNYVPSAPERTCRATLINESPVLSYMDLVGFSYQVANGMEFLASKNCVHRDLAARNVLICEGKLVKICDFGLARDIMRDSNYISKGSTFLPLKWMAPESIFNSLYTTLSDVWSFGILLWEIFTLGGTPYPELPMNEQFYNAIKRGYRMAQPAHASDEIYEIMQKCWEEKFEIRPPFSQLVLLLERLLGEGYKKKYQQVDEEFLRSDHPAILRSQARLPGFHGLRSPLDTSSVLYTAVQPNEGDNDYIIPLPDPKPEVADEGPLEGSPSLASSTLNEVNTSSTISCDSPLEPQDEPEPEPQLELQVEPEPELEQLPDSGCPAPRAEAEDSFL
T1 sequence (P00533 25-1210): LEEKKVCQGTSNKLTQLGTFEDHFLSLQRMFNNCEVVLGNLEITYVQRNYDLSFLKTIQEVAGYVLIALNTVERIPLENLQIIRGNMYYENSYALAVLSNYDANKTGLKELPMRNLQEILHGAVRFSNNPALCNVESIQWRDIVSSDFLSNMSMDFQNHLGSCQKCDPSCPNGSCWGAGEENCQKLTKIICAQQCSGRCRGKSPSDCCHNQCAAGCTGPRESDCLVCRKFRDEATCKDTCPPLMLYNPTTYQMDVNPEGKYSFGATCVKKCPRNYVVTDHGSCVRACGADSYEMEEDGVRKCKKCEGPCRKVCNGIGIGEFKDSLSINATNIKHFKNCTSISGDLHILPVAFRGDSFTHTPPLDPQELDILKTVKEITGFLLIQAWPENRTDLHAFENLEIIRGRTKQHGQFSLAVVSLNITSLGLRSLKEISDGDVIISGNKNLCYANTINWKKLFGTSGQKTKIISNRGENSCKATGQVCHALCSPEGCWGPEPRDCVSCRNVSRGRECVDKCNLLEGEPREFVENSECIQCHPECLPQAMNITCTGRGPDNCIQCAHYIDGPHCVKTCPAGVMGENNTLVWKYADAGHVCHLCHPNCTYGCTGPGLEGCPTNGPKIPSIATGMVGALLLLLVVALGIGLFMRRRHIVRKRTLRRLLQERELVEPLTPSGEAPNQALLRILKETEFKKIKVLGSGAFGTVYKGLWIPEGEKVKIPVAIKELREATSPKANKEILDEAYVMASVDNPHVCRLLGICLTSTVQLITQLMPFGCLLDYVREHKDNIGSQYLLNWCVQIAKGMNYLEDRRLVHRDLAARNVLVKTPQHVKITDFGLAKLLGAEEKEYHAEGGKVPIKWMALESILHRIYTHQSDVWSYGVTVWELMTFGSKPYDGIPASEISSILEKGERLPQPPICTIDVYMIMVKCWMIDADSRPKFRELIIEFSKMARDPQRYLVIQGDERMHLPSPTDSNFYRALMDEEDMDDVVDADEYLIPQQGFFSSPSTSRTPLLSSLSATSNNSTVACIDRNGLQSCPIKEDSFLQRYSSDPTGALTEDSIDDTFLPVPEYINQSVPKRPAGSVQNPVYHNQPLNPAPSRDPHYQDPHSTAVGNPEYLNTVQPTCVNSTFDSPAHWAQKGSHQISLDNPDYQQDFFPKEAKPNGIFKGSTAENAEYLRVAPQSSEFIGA
T1 sequence (P01133 971-1023 partner limits assumed): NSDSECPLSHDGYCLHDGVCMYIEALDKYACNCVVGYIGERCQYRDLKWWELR

Row | Compound | IC50 [2] [µM] | inhibition at 100 µM [14] [%] | IC50 [5, 17] [µM] | IC50 ([11]; EGF) [µM] | IC50 ([11]; PDGF) [µM] | IC50 ([11]; bFGF) [µM] | IC50 ([11]; serum) [µM] | further results
1 | CN1C(=S)C(C(=O)Nc2ccccc2)c2ccccc21 (stereo not drawn) [Compound 21, N-phenyl (1-methyl-2-thioxo-3-indolinyl)carboxamide] | 1 | – | 64 | 2 | 8 | 13 | 19 | IC50 [1]: 62 µM; IC50 [3]: 39 µM; suppression of bFGF mediated tyrosine phosphorylation ([4]; Swiss 3T3, 10 to 50 mM): suppressed; IC50 ([5]; Swiss 3T3 fibroblasts, cell line table, read-out: IC50 cell growth inhibition): 64 µM; IC50 [6]: 30 µM; suppression of EGF mediated phosphorylation of a variety of endogenous proteins [7]: suppressed; IC50 [8]: 43 µM; IC50 [9]: 15 µM; growth inhibition in words [10]: growth inhibitory; IC50 [12]: 55 µM; suppression of PDGF mediated autophosphorylation of the PDGF receptor and tyrosine phosphorylation of other endogenous proteins [13]: suppressed
2 | Cc1ccc(S(=O)(=O)c2c(SSc3[nH]c4ccccc4c3S(=O)(=O)c3ccc(C)cc3)[nH]c3ccccc23)cc1 [Compound 99, bis[3-(4-methylphenylsulfonyl)-2-indolyl]disulfide] | 40 | 19 | – | – | – | – | – | IC50 ([5]; Swiss-3T3, 72 h, read-out: IC50 growth inhibition): 2.8 µM
3 | O=CN/C=C/c1cc(O)ccc1O [erbstatin] | – | – | – | – | – | – | – | tumor growth inhibition [15]: inhibits the growth; IC50 growth of A431 cells [16]: 3.6 µg/mL

Further lines, with some results ahead:

Row | IC50 [2] [µM] | inhibition at 100 µM [14] [%] | Compound | IC50 [5, 17] [µM] | IC50 ([11]; EGF) [µM] | IC50 ([11]; PDGF) [µM] | IC50 ([11]; bFGF) [µM] | IC50 ([11]; serum) [µM] | further results
4 | 8.6 | 1 | Cn1c(SSc2c(C(=O)Nc3ccccc3)c3ccccc3n2C)c(C(=O)Nc2ccccc2)c2ccccc21 [Compound 70, bis [N-phenyl 1-methylindolyl-3-carboxamide-(2)] disulfide] | 12 | 3 | 4 | 3 | 3 | inhibition of bFGF mediated tyrosine phosphorylation (selectivity over EGF and PDGF) ([4]; Swiss 3T3, as low as 2 mM): more selective and inhibited only bFGF mediated tyrosine phosphorylation
5 | 1.5 | 9 | Cn1c(SSc2c(C(=O)NCc3ccccc3)c3ccccc3n2C)c(C(=O)NCc2ccccc2)c2ccccc21 [Compound 98, bis[N-benzyl 1-methylindolyl-3-carboxamide-(2)]disulfide] | 5 to 12 | – | – | – | – | –
6 | 26 | – | CN(C)CCNC(=O)c1c(SSc2c(C(=O)NCCN(C)C)c3ccccc3n2C)n(C)c2ccccc12 [Compound 115, 2,2'-dithiobis [N-(N,N-dimethylaminoethyl) 1-methylindolyl-3-carboxamide]] | > 50 | – | – | – | – | IC50 ([14]; Table 2, PDGF-R, IC50 entries, read-out: IC50 (PDGFR TK)): 19.7 µM
